Data as given in patent publication US10781183B2, “Small molecule inducers of reactive oxygen species and inhibitors of mitochondrial activity” (The Regents of the University of Michigan, priority 2016, dated 2020).
Read-outs that look alike come from different tables or passages of the source.

Assays:
[1] = test system: HPDE; experiment: MTT cytotoxicity assay, immortalized pancreatic cell line HPDE; type: cell-based, human; details: HPDE vs MiaPaCa-2
Method: (§1) MiaPaCa-2, Panc-1 and BxPC-3 pancreatic cancer cell lines were obtained from the ATCC. Normal pancreatic cells HPDE and HPNE were kindly provided (Translational Oncology Program, University of […], Ann Arbor, Mich.). Gemcitabine resistant cell line MiaPaCa-2-GR (gemcitabine resistant) was kindly provided (Department of Pathology, Wayne State University, Detroit, Mich.). All cell lines were cultured as monolayer and maintained in RPMI1640 supplemented with 10% fetal bovine serum (FBS) in a humidified atmosphere with 5% CO2 at 37° C. MiaPaCa-2-GR culture was supplemented with 200 nM gemcitabine.
(§2) Cytotoxicity of compounds was evaluated with 3-(4,5-dimethylthiazol-2-yl)-2,5-diphenyltetrazolium bromide (MTT) assay. Cells were placed in 96-well plate at 3000-8000 cells/well. After overnight attachment, compounds were added to the wells at sequential dilutions (30 nM-10 μM for most cell lines). After 72 h treatment, MTT was added into the media to a final concentration of 300 μg/mL. Cells were incubated for 3 h at 37° C., and the insoluble formazan converted by viable cells were dissolved in 150 μL of DMSO. Absorbance at 570 nm was read by microplate reader (Molecular devices, Sunnyvale, Calif.), and inhibition of cell proliferation was calculated using the following formula: Inhibition of cell proliferation (%)=(1−ODtreatment/ODcontrol)×100%

[2] = test system: MiaPaCa-2 cells; experiment: ROS detection assay (H2DCFDA probe); type: cell-based
Method: To quantify ROS induction by redox modulators, a high throughput ROS assay in 384-well plates using H2DCFDA as the ROS detection probe was developed (FIG. 1A).
Cells were detached by 0.05% trypsin-EDTA, neutralized, centrifuged (1200 rpm, 5 min) and resuspended in cell culture media. Suspension were then treated with 20 μM cell permeable H2DCFDA for 30 min at 37° C. Cells were then centrifuged (1200 rpm, 5 min) and washed with cell culture media to remove excess probe. After washing, cells were placed in black-wall 384-well plate at 20,000 cells/well, incubated for 30 min and treated by compounds at designated conditions. Fluorescent signal were then read at 493 nm/523 nm on BioTek H1 plate reader for ROS detection.

[3] = test system: MiaPaCa-2 xenograft; experiment: MiaPaCa-2 xenograft studies; type: in vivo, NOD/SCID mice
Method: (§3) MiaPaCa-2 cells (2.0×10^6) in a 100 μL suspension of RPMI1640 was injected subcutaneously into dorsal flank of 6-week NOD/SCID mice. Tumor size was monitored twice a week through caliper measurement using the following equation: V=d^2×D/2, where d represents width and D represents length of the tumor. In study 1, mice were randomly grouped (n=5 per group) when average tumor size reached 65 mm^3. Daily treatment was given at five days on two days off cycles. QD325 was given at 5 mg/kg in 100 μL vehicle (5% DMSO, 60% Propylene glycol, 35% Saline) by intraperitoneal injection. […] Unpaired t test was performed for data analysis and p<0.05 was considered significant. […] Procedures for study 2 with gemcitabine treatment are detailed in supplemental information.
(§4) On necropsy, tumors, hearts, kidneys, livers, lungs, spleens and pancreases were collected, fixed in 10% neutral buffered formalin, embedded in paraffin, and sectioned. Sections ([…]) were stained with hematoxylin and eosin to facilitate histologic examination. For Ki67 expression level, immunohistochemistry staining was performed on sections with Ki67 antibody. Embedding, sectioning and staining of samples were performed by ULAM pathology core for animal research at the University of Michigan. Representative images were taken on Olympus IX83 microscope with 20× magnification.

[4] = Systemic toxicity in MiaPaCa-2 engrafted mice
Method: as §3, §4

[5] = test system: MiaPaCa-2 cells; experiment: Bru-seq analysis for nascent RNA synthesis; type: cell-based
Text: A bromouridine labeled RNA sequencing (Bru-seq) technique was used to better characterize molecular mechanisms of these novel agents. Bru-seq is able to capture real-time synthesis of the nascent RNA, so as to provide information on global gene transcription without interference by RNA stability or biased gene selection (Paulsen et al., 2014, Paulsen et al., 2013). […] Profiling of all genes with >1.5-fold change in expression upon treatment of QD232 or QD325 identified NRF2-mediated oxidative stress response and unfolded protein response (UPR) as key pathways implicated in drug action (FIG. 8A).
Bru-seq analysis was performed as previously reported (Paulsen et al., 2014). Briefly, 4×10^6 MiaPaCa-2 cells were placed in 10 cm dishes on Day 1. On Day 2, cells were treated with DMSO, QD232 or QD325 for 4 h. Bromouridine was added into the media to label newly synthesized nascent RNA in the last 30 min of treatment to a final concentration of 2 mM. Cells were then collected in TRIZOL and total RNA was isolated. Bromouridine containing RNA population was further isolated and sent for sequencing. Sequencing reads were mapped to the HG19 reference genome. Pre-ranked gene lists were generated for each treatment through ranking genes by fold changes in gene synthesis levels compared with control, and analyzed with GSEA (Broad Institute, MA) (Subramanian et al., 2005, Mootha et al., 2003)

[6] = test system: Panc-1 cells; experiment: MTT cytotoxicity assay, Panc-1; type: cell-based; details: three independent experiments
Method: as §1, §2

[7] = test system: BxPC-3 cells; experiment: MTT cytotoxicity assay, BxPC-3; type: cell-based; details: Homo sapiens, three independent experiments
Method: as §1, §2

[8] = test system: MiaPaCa-2 cells; experiment: MTT cytotoxicity assay, MiaPaCa-2; type: cell-based; details: for IC50: Homo sapiens, Mean ± SD, three independent experiments
Method: as §1, §2

SMILES: O=C1C(Nc2ccc(-c3ccccc3)cc2)=CC(=O)c2ncncc21 [QD325, 6-([1,1′-biphenyl]-4-ylamino)quinazoline-5,8-dione]
- selectivity for MiaPaCa-2 over HPDE [1]: 3 fold
- ROS induction compared with lead compound QD232 ([2]; MiaPaCa-2, 24 h treatment, 10 μM (FIG. 1C)): significantly higher ROS induction than the lead compound QD232
- accumulation of ROS ([2]; MiaPaCa-2, 10, 3.3 or 1.1 μM (FIG. 3A)): time- and dose-dependent accumulation of ROS
- ROS accumulation at 10 and 3.3 μM ([2]; MiaPaCa-2, 10 and 3.3 μM): rapid and high ROS accumulation
- ROS induction after NAC pretreatment ([2]; MiaPaCa-2, NAC 5 mM for 30 min pretreatment (FIG. 3B)): inhibited
- average tumor size at the end of the 48-day treatment period ([3]; QD325 5 mg/kg five times a week, gemcitabine 15 mg/kg once a week, control 1503±189 mm^3): 248±72 mm^3
- growth of tumors ([3]; QD325 5 mg/kg i.p. five times a week, treatment period of 44 days): significantly delayed growth of tumors
- average tumor size on day 44 ([3]; QD325 5 mg/kg i.p. five times a week, n=5, control 1291±168 mm^3): 308±72 mm^3
- NQO1, HO-1, CHOP and GRP78 protein levels in tumor lysates ([3]; QD325 treated tumors vs vehicle controls (FIG. 12E)): significantly upregulated
- growth of tumors at higher doses ([3]; after day 44, dose increased from 5 to 20 mg/kg until day 67, two mice per group): able to delay growth of the tumors
- Ki67 levels in tumor tissues ([3]; immunohistochemistry of xenograft sections, QD325 5 mg/kg (FIG. 12D)): decreased Ki67 levels
- body weight of engrafted mice ([4]; QD325 5 mg/kg (FIG. 12B)): not affected
- body weight of engrafted mice ([4]; QD325 5-20 mg/kg (FIG. 13B)): not affected
- systemic toxicity at higher doses ([4]; doses as high as 20 mg/kg): no systemic toxicity was observed
- histopathology of H&E stained organ sections ([4]; liver, kidney, heart, lung, spleen and pancreas, QD325 5 mg/kg (FIG. 12C)): did not reveal major histopathological changes
- apoptosis signaling (IPA analysis) ([5]; 4 h, QD232 3 times IC50, QD325 5 times IC50 (FIG. 4)): significant activation of apoptosis signaling
- nascent RNA synthesis of mitochondrial genome ([5]; 4 h, QD232 at 6.9 μM, QD325 at 5.0 μM (FIG. 10A)): inhibited
- transcription of DDIT3 and HSPA5 ([5]; 4 h treatment, dose dependently (FIG. 8C)): significantly increased
- synthesis of NQO1 and HMOX1 RNAs ([5]; 4 h treatment, QD232 at 1, 2 or 3 times IC50, QD325 at 1, 2 or 5 times IC50 (FIG. 8B)): dose-dependently upregulated
- IC50 ([6]; Homo sapiens, PANC-1, Table 2, Mean ± SD, read-out: IC 50 Panc-1): 400 ± 100 nM
- IC50 ([6]; Table 1, 72 h, Mean ± SD): < 1000 nM
- IC50 ([7]; BXPC-3, 72 h, Table 1, 72 h, Mean ± SD): < 1000 nM
- IC50 ([7]; BXPC-3, Table 2, Mean ± SD, read-out: IC 50 BxPC-3): 500 ± 100 nM
- IC50 ([8]; MIA PaCa-2, 72 h, Table 1, MTT assay, 72 h): < 1000 nM
- IC50 ([8]; MIA PaCa-2, Table 2, MTT assay, read-out: IC 50 MiaPaCa-2): 900 ± 200 nM
- improvement in cytotoxicity compared with QD232 ([8]; MTT assay in PDAC cell lines MiaPaCa-2, Panc-1 and BxPC-3): more than two fold improvement in cytotoxicity
- cytotoxicity in presence of NAC ([8]; MTT assay, 72 h, NAC 5 mM (FIG. 3C)): decreased cytotoxicity
